In patent publication US4650801A, “Anti-cancer compositions for delivering 5-fluorouracil” (Taiho Pharmaceutical Company, Ltd., priority 1978, dated 1987):
Read-outs that look alike come from different tables or passages of the source.

Assays:
in vivo = conditions: mouse, in vivo, po
Procedure: (§1) The anti-cancer compositions of this invention are tested in mice by the following methods to determine acute toxicity, anti-cancer effect and therapeutic index
(§2) Male mice of ICR strain weighing 22±1 g are used, 5 mice in each group. A 5-fluorouracil (a) and uracil derivative (b) in the proportions listed in Tables 1-16 are suspended in a 5% solution of gum arabic to prepare a suspension, which is forcibly orally administered to each mouse through a tube at a dose of 1 ml/100 g. Over the following period of three weeks the mice are checked every day for poisoning, body weight and mortality. The LD50 is determined according to the up-and-down method 3 weeks after the administration.

male mice of ICR strain = assay: in vivo; conditions: 30240 min
Procedure: as §1, §2

sarcoma 180 = assay type: in vivo
Procedure: as §1, §2
Tissues of sarcoma 180, 2×10^6, are subcutaneously transplanted in the back of male mice of ICR strain (6 mice in each group). A 5-fluorouracil (a) and uracil derivative (b) in the proportions listed in Tables 1-16 are suspended in a 5% solution of gum arabic to prepare a suspension. Twenty-four hours after the transplantation and during the following seven consecutive days the suspension is orally given to the animal once every day.
The LD50 and ED50 values obtained above are used to determine the therapeutic index (LD50 /ED50).

[1] = (b) = 1(2-Tetrahydrofuryl)uracil, (b)/(a) mol ratio 1
[2] = (b) = 1(2-Tetrahydrofuryl)uracil, (b)/(a) mol ratio 2
[3] = (b) = 1(2-Tetrahydrofuryl)uracil, (b)/(a) mol ratio 5
[4] = (b) = 1Acetyluracil, (b)/(a) mol ratio 1
[5] = (b) = 1Acetyluracil, (b)/(a) mol ratio 2
[6] = (b) = 1Acetyluracil, (b)/(a) mol ratio 5
[7] = (b) = 1Cyclohexylcarbamoyluracil, (b)/(a) mol ratio 0.5
[8] = (b) = 1Cyclohexylcarbamoyluracil, (b)/(a) mol ratio 5
[9] = (b) = 1n-Hexylcarbamoyluracil, (b)/(a) mol ratio 1
[10] = (b) = 1n-Hexylcarbamoyluracil, (b)/(a) mol ratio 2
[11] = (b) = 1n-Hexylcarbamoyluracil, (b)/(a) mol ratio 10
[12] = (b) = 2'-Deoxycytidine, (b)/(a) mol ratio 1
[13] = (b) = 2'-Deoxycytidine, (b)/(a) mol ratio 2
[14] = (b) = 2'-Deoxyuridine, (b)/(a) mol ratio 1
[15] = (b) = 2'-Deoxyuridine, (b)/(a) mol ratio 2
[16] = (b) = 2'-Deoxyuridine, (b)/(a) mol ratio 20
[17] = (b) = 3Benzoyluracil, (b)/(a) mol ratio 1
[18] = (b) = 3Benzoyluracil, (b)/(a) mol ratio 2
[19] = (b) = 3Benzoyluracil, (b)/(a) mol ratio 10
[20] = (b) = 5Bromo-2'-deoxyuridine, (b)/(a) mol ratio 0.5
[21] = (b) = 5Bromo-2'-deoxyuridine, (b)/(a) mol ratio 2
[22] = (b) = 5Bromo-2'-deoxyuridine, (b)/(a) mol ratio 10
[23] = (b) = 5Bromouracil, (b)/(a) mol ratio 0.5
[24] = (b) = 5Bromouracil, (b)/(a) mol ratio 2
[25] = (b) = 5Bromouracil, (b)/(a) mol ratio 10
[26] = (b) = 5Iodouracil, (b)/(a) mol ratio 1
[27] = (b) = 5Iodouracil, (b)/(a) mol ratio 5
[28] = (b) = Cytidine, (b)/(a) mol ratio 2
[29] = (b) = Cytidine, (b)/(a) mol ratio 10
[30] = (b) = Cytosine, (b)/(a) mol ratio 10
[31] = (b) = Orotic acid, (b)/(a) mol ratio 2
[32] = (b) = Orotic acid, (b)/(a) mol ratio 20
[33] = (b) = Thymidine, (b)/(a) mol ratio 0.5
[34] = (b) = Thymidine, (b)/(a) mol ratio 2
[35] = (b) = Thymidine, (b)/(a) mol ratio 10
[36] = (b) = Thymine, (b)/(a) mol ratio 0.5
[37] = (b) = Thymine, (b)/(a) mol ratio 2
[38] = (b) = Thymine, (b)/(a) mol ratio 10
[39] = (b) = Uridine, (b)/(a) mol ratio 1
[40] = (b) = Uridine, (b)/(a) mol ratio 2
[41] = (b) = Uridine, (b)/(a) mol ratio 20
[42] = (b) = 1Cyclohexylcarbamoyluracil, (b)/(a) mol ratio 2
[43] = (b) = 2'-Deoxycytidine, (b)/(a) mol ratio 10
[44] = (b) = 5Iodouracil, (b)/(a) mol ratio 2
[45] = (b) = Orotic acid, (b)/(a) mol ratio 1

Compound: O=c1[nH]cc(F)c(=O)n1C1CCCO1 (stereo not shown) [Compound 6, 3-(2-Tetrahydrofuryl)-5-fluorouracil]
- LD50 at 504 h (in vivo; [1]): 874 mg/kg
- LD50 at 504 h (in vivo; [2]): 650 mg/kg
- LD50 at 504 h (in vivo; [3]): 535 mg/kg
- LD50 at 504 h (in vivo; [4]): 702 mg/kg
- LD50 at 504 h (in vivo; [5]): 468 mg/kg
- LD50 at 504 h (in vivo; [6]): 246 mg/kg
- LD50 at 504 h (in vivo; [7]): 833 mg/kg
- LD50 at 504 h (in vivo; [8]): 576 mg/kg
- LD50 at 504 h (in vivo; [9]): 928 mg/kg
- LD50 at 504 h (in vivo; [10]): 844 mg/kg
- LD50 at 504 h (in vivo; [11]): 469 mg/kg
- LD50 at 504 h (in vivo; [12]): 928 mg/kg
- LD50 at 504 h (in vivo; [13]): 843 mg/kg
- LD50 at 504 h (in vivo; [14]): 845 mg/kg
- LD50 at 504 h (in vivo; [15]): 790 mg/kg
- LD50 at 504 h (in vivo; [16]): 525 mg/kg
- LD50 at 504 h (in vivo; [17]): 768 mg/kg
- LD50 at 504 h (in vivo; [18]): 663 mg/kg
- LD50 at 504 h (in vivo; [19]): 448 mg/kg
- LD50 at 504 h (in vivo; [20]): 640 mg/kg
- LD50 at 504 h (in vivo; [21]): 478 mg/kg
- LD50 at 504 h (in vivo; [22]): 308 mg/kg
- LD50 at 504 h (in vivo; [23]): 745 mg/kg
- LD50 at 504 h (in vivo; [24]): 575 mg/kg
- LD50 at 504 h (in vivo; [25]): 412 mg/kg
- LD50 at 504 h (in vivo; [26]): 467 mg/kg
- LD50 at 504 h (in vivo; [27]): 194 mg/kg
- LD50 at 504 h (in vivo; [28]): 928 mg/kg
- LD50 at 504 h (in vivo; [29]): 773 mg/kg
- LD50 at 504 h (in vivo; [30]): 639 mg/kg
- LD50 at 504 h (in vivo; [31]): 969 mg/kg
- LD50 at 504 h (in vivo; [32]): 806 mg/kg
- LD50 at 504 h (in vivo; [33]): 963 mg/kg
- LD50 at 504 h (in vivo; [34]): 886 mg/kg
- LD50 at 504 h (in vivo; [35]): 639 mg/kg
- LD50 at 504 h (in vivo; [36]): 830 mg/kg
- LD50 at 504 h (in vivo; [37]): 537 mg/kg
- LD50 at 504 h (in vivo; [38]): 324 mg/kg
- LD50 at 504 h (in vivo; [39]): 945 mg/kg
- LD50 at 504 h (in vivo; [40]): 815 mg/kg
- LD50 at 504 h (in vivo; [41]): 597 mg/kg
- LD50 (male mice of ICR strain; [42]): 694 mg/kg
- LD50 (male mice of ICR strain; [43]): 680 mg/kg
- LD50 (male mice of ICR strain; [44]): 380 mg/kg
- LD50 (male mice of ICR strain; [45]): 1020 mg/kg
- Therapeutic Index (LD50/ED50) (sarcoma 180; [1]): 17.1
- Therapeutic Index (LD50/ED50) (sarcoma 180; [2]): 22.4
- Therapeutic Index (LD50/ED50) (sarcoma 180; [3]): 29.7
- Therapeutic Index (LD50/ED50) (sarcoma 180; [4]): 21.9
- Therapeutic Index (LD50/ED50) (sarcoma 180; [5]): 18.0
- Therapeutic Index (LD50/ED50) (sarcoma 180; [6]): 15.4
- Therapeutic Index (LD50/ED50) (sarcoma 180; [7]): 15.1
- Therapeutic Index (LD50/ED50) (sarcoma 180; [42]): 15.1
- Therapeutic Index (LD50/ED50) (sarcoma 180; [8]): 17.5
- Therapeutic Index (LD50/ED50) (sarcoma 180; [9]): 15.7
- Therapeutic Index (LD50/ED50) (sarcoma 180; [10]): 20.6
- Therapeutic Index (LD50/ED50) (sarcoma 180; [11]): 16.8
- Therapeutic Index (LD50/ED50) (sarcoma 180; [12]): 15.7
- Therapeutic Index (LD50/ED50) (sarcoma 180; [13]): 17.9
- Therapeutic Index (LD50/ED50) (sarcoma 180; [43]): 20.0
- Therapeutic Index (LD50/ED50) (sarcoma 180; [14]): 15.9
- Therapeutic Index (LD50/ED50) (sarcoma 180; [15]): 18.8
- Therapeutic Index (LD50/ED50) (sarcoma 180; [16]): 20.2
- Therapeutic Index (LD50/ED50) (sarcoma 180; [17]): 18.3
- Therapeutic Index (LD50/ED50) (sarcoma 180; [18]): 20.7
- Therapeutic Index (LD50/ED50) (sarcoma 180; [19]): 17.9
- Therapeutic Index (LD50/ED50) (sarcoma 180; [20]): 13.1
- Therapeutic Index (LD50/ED50) (sarcoma 180; [21]): 15.9
- Therapeutic Index (LD50/ED50) (sarcoma 180; [22]): 14.0
- Therapeutic Index (LD50/ED50) (sarcoma 180; [23]): 19.1
- Therapeutic Index (LD50/ED50) (sarcoma 180; [24]): 22.1
- Therapeutic Index (LD50/ED50) (sarcoma 180; [25]): 19.6
- Therapeutic Index (LD50/ED50) (sarcoma 180; [26]): 18.0
- Therapeutic Index (LD50/ED50) (sarcoma 180; [44]): 22.4
- Therapeutic Index (LD50/ED50) (sarcoma 180; [27]): 17.6
- Therapeutic Index (LD50/ED50) (sarcoma 180; (b) = Cytidine, (b)/(a) mol ratio 1): 17.6
- Therapeutic Index (LD50/ED50) (sarcoma 180; [28]): 23.8
- Therapeutic Index (LD50/ED50) (sarcoma 180; [29]): 22.7
- Therapeutic Index (LD50/ED50) (sarcoma 180; (b) = Cytosine, (b)/(a) mol ratio 1): 18.2
- Therapeutic Index (LD50/ED50) (sarcoma 180; (b) = Cytosine, (b)/(a) mol ratio 2): 24.9
- Therapeutic Index (LD50/ED50) (sarcoma 180; [30]): 26.6
- Therapeutic Index (LD50/ED50) (sarcoma 180; [45]): 14.8
- Therapeutic Index (LD50/ED50) (sarcoma 180; [31]): 15.9
- Therapeutic Index (LD50/ED50) (sarcoma 180; [32]): 17.5
- Therapeutic Index (LD50/ED50) (sarcoma 180; [33]): 14.4
- Therapeutic Index (LD50/ED50) (sarcoma 180; [34]): 14.1
- Therapeutic Index (LD50/ED50) (sarcoma 180; [35]): 10.7
- Therapeutic Index (LD50/ED50) (sarcoma 180; [36]): -17.3
- Therapeutic Index (LD50/ED50) (sarcoma 180; [37]): 19.9
- Therapeutic Index (LD50/ED50) (sarcoma 180; [38]): 23.1
- Therapeutic Index (LD50/ED50) (sarcoma 180; [39]): 22.0
- Therapeutic Index (LD50/ED50) (sarcoma 180; [40]): 26.3
- Therapeutic Index (LD50/ED50) (sarcoma 180; [41]): 20.6
- Therapeutic Index (LD50/ED50) (sarcoma 180; (b)/(a) mol ratio 0 (alone)): 13.1
